Data: US20250154109A1, “SODIUM CHANNEL BLOCKING COMPOUNDS, DERIVATIVES THEREOF, AND METHODS OF THEIR USE” (LATIGO BIOTHERAPEUTICS, INC, priority 2022, published 2025)
Like-named read-outs stand apart in the source and are kept apart here.

Target: human Nav1.8 (Homo sapiens, UniProt Q9Y5Y9)
Assay: SyncroPatch384PE assay (automated patch clamp)
Type: cell-based
Details: human Nav1.8/b3 CHO cells
Protocol: Compounds were tested on recombinant human Nav1.8/b3 stably transfected CHO cells using the SyncroPatch384PE system (Nanion Technologies), an automated patch clamp device. Cells were cultured at 37° C./5% CO2 in Ham's F-12 supplemented with 10% fetal bovine serum, 100 U/mL penicillin G sodium, […] streptomycin sulfate and selection antibiotics (0.01 mg/mL Blasticidin, 0.4 mg/mL Zeocin and 0.25 mg/mL Hygromycin). On the day of the recordings, cells in culture dishes were washed twice with Hank's Balanced Salt Solution (HBSS) and treated with Accutase for approximately 20 minutes. Immediately before use in the SynchroPatch384PE using an 8-hole NPC-384 chip, the cells were washed in HBSS to remove the Accutase and re-suspended in extracellular solution. All experiments were performed at ambient temperature. Intracellular solution contained (mM): CsCl, 50; CsF, 90; MgCl2, 5; EGTA, 1; HEPES, 10; pH adjusted to 7.2 with CsOH. Extracellular solution contained (mM): NaCl, 137; KCl, 4.0; CaCl2), 3.8; MgCl2, 1; HEPES, 10; Glucose, 10; pH adjusted to 7.4 with NaOH. 100 nM tetrodotoxin (TTX) was added to the extracellular solution to block endogenous TTX-sensitive sodium currents.
Compounds were tested in quadruplicate in 0.3% DMSO and 0.03% pluronic Acid. Compounds were diluted 1:3.33 in extracellular solution to create an 8-point concentration response curve. Each plate contained a historical positive control and up to ten compounds. 300 μM tetracaine and 0.3% DMSO+0.03% pluronic acid were used as high and low controls respectively.
Whole cell patch clamp recordings were conducted according to Nanion's standard procedure for SyncroPatch384PE®. Cells were held at a holding potential of −120 mV. A depolarization step to 10 mV for 30 ms was applied (P1 measurement), followed by a hyperpolarization step to −100 mV for 100 ms. An inactivation step at −35 mV for 10 sec was applied before stepping to −100 mV for 20 ms, followed by a step to 10 mV for 30 ms (P2 measurement) and then back to −100 mV for 30 ms. Sweep interval was 15 sec. Following establishment of the whole-cell configuration in extracellular solution, cells were washed in extracellular solution containing 0.3% DMSO and 0.03% pluronic acid to stabilize the baseline current. Compounds were then applied by the SynchroPatch384 PE system into each well and the current was recorded for five minutes in extracellular solution, followed by application of tetracaine to achieve full block at the end of experiment. The potency of the compounds was assessed on two read-outs, resting state block (P1 measurement) or inactivated state block (P2 measurement) to obtain IC50 values. Values were normalized to high (tetracaine) and low (DMSO+pluronic acid) controls.
Examples 1 to 219 and Examples 225 to 236 are assayed using SyncroPatch384PE assay described above.

[1] = inactivated state block (P2 measurement), read-out: P2 IC50
[2] = resting state block (P1 measurement), read-out: P1 IC50

human Nav1.8, sequence (Q9Y5Y9 whole entry): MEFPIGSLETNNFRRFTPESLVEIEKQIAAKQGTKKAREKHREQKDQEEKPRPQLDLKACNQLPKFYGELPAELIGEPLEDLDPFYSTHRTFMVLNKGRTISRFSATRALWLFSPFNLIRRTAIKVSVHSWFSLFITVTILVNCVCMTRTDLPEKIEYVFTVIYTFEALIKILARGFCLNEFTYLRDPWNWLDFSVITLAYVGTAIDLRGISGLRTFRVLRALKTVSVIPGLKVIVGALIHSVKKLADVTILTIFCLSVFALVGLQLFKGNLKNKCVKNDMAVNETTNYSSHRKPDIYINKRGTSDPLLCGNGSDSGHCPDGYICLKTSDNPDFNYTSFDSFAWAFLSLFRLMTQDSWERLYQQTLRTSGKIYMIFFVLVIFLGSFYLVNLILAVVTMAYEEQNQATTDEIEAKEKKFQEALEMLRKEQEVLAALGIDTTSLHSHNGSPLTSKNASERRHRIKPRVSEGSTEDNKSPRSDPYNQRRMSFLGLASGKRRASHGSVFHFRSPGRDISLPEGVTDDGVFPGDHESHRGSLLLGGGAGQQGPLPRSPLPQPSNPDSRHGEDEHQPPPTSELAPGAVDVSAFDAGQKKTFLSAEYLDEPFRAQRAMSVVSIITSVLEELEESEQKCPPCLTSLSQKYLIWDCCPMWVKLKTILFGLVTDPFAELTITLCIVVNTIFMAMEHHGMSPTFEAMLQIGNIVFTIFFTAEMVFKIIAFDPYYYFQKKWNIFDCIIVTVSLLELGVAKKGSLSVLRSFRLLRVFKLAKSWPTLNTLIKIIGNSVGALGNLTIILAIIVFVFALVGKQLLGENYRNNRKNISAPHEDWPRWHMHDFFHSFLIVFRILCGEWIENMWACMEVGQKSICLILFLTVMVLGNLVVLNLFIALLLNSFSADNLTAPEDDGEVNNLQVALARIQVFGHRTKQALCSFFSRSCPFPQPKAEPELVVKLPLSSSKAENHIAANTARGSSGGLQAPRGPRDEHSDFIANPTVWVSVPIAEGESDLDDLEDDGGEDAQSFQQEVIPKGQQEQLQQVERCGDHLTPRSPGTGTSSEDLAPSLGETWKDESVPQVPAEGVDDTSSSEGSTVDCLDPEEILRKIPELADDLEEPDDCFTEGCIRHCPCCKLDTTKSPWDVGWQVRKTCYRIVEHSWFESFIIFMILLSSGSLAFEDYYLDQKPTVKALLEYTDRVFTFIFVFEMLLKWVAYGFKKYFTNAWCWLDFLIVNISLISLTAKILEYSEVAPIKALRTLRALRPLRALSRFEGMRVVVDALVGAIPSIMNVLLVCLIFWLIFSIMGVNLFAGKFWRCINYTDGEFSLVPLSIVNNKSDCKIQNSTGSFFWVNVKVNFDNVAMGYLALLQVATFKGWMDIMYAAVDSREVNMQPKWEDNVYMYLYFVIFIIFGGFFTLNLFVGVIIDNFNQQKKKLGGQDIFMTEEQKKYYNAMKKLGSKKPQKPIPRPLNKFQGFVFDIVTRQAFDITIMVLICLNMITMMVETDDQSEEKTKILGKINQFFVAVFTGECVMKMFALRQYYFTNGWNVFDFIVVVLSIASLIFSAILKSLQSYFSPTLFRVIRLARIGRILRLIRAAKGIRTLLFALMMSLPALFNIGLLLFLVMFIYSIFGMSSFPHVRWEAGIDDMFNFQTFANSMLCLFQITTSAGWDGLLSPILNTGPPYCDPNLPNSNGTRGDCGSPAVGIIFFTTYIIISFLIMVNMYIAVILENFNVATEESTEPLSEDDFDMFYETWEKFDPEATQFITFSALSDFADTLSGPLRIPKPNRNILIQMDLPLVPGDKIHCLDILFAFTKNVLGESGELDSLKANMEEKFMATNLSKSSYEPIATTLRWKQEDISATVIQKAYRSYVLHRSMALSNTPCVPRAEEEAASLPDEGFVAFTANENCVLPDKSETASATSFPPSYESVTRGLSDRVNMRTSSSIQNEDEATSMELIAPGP

Cc1ccsc1-c1cnc(N2CCCC(F)(F)CC2)c(C(=O)Nc2cccc(S(C)(=N)=O)c2)c1C (stereo not shown) [Example 113, 2-(4,4-difluoroazepan-1-yl)-4-methyl-N-(3-(S-methylsulfonimidoyl)phenyl)-5-(3-methylthiophen-2-yl)nicotinamide]
IC50 [1]: ≤ 5 nM | IC50 [2]: ≤ 5 nM

Cc1ncc(-c2cnc(N3CCCC(F)(F)CC3)c(C(=O)Nc3cccc([S@](C)(=N)=O)c3)c2C)o1 [Example 178, (R)-2-(4,4-difluoroazepan-1-yl)-4-methyl-5-(2-methyloxazol-5-yl)-N-(3-(S-methylsulfonimidoyl)phenyl)nicotinamide]
IC50 [1]: 5 to 50 nM | IC50 [2]: 5 to 50 nM

Cc1c(-c2ccccc2)cnc(N2CCCC(F)(F)CC2)c1C(=O)Nc1cccc(S(C)(=N)=O)c1 (stereo not shown) [Example 42, 2-(4,4-Difluoroazepan-1-yl)-4-methyl-N-(3-(S-methylsulfonimidoyl)phenyl)-5-phenylnicotinamide]
IC50 [1]: ≤ 5 nM | IC50 [2]: ≤ 5 nM

CS(=N)(=O)c1cccc(NC(=O)c2ccc(CC3CC3)nc2N2CCC3(CC2)CC3)c1 (stereo not shown) [Example 80, 6-(cyclopropylmethyl)-N-(3-(S-methylsulfonimidoyl)phenyl)-2-(6-azaspiro[2.5]octan-6-yl)nicotinamide]
IC50 [1]: 5 to 50 nM | IC50 [2]: 5 to 50 nM

C=CCCc1ccc(C(=O)Nc2cccc([S@@](C)(=N)=O)c2)c(N2CCCC(F)(F)CC2)n1 [Example 30, (S)-6-(3-Buten-1-yl)-2-(4,4-difluoroazepan-1-yl)-N-(3-(S-methylsulfonimidoyl)phenyl)nicotinamide]
IC50 [1]: ≤ 5 nM | IC50 [2]: ≤ 5 nM

Cc1c(-c2ccccc2F)cnc(N2CCCC(F)(F)CC2)c1C(=O)Nc1cccc(S(C)(=N)=O)c1 (stereo not shown) [Example 92, 2-(4,4-difluoroazepan-1-yl)-5-(2-fluorophenyl)-4-methyl-N-(3-(S-methylsulfonimidoyl)phenyl)nicotinamide]
IC50 [1]: ≤ 5 nM | IC50 [2]: ≤ 5 nM

Cc1c(-c2ccc(C#N)cc2)cnc(N2CCCC(F)(F)CC2)c1C(=O)NC12CC(C(N)=O)(C1)C2 [Example 134, N-(3-carbamoylbicyclo[1.1.1]pentan-1-yl)-5-(4-cyanophenyl)-2-(4,4-difluoroazepan-1-yl)-4-methylnicotinamide]
IC50 [1]: > 200 nM | IC50 [2]: > 200 nM

Cc1c(-c2cnn(C)c2)cnc(N2CCCC(F)(F)CC2)c1C(=O)Nc1cccc([S@@](C)(=O)=NC(=O)CN)c1 [Example 74, (R)-2-(4,4-difluoroazepan-1-yl)-N-(3-(N-glycyl-S-methylsulfonimidoyl)phenyl)-4-methyl-5-(1-methyl-1H-pyrazol-4-yl)nicotinamide]
IC50 [1]: 5 to 50 nM | IC50 [2]: 5 to 50 nM

C[S@@](=N)(=O)c1cccc(NC(=O)c2cc(Cl)c(C(F)(F)F)cc2N2CCO[C@@H](C(F)(F)F)C2)c1 [Example 216, 5-chloro-N-(3-((R)—S-methylsulfonimidoyl)phenyl)-4-(trifluoromethyl)-2-((R)-2-(trifluoromethyl)morpholino)benzamide]
IC50 [1]: 50 to 100 nM | IC50 [2]: 50 to 100 nM

Cc1c(-c2cnn(C)c2)cnc(N2CCCC(F)(F)CC2)c1C(=O)Nc1cccc([S@@](C)(=O)=NC(=O)C(N)C(F)(F)F)c1 (stereo partly drawn) [Example 174, N-(3-((R)-N-(2-amino-3,3,3-trifluoropropanoyl)-S-methylsulfonimidoyl)phenyl)-2-(4,4-difluoroazepan-1-yl)-4-methyl-5-(1-methyl-1H-pyrazol-4-yl)nicotinamide]
IC50 [1]: 5 to 50 nM | IC50 [2]: 5 to 50 nM

Cc1c(-c2cnco2)cnc(N2CCCC(F)(F)CC2)c1C(=O)Nc1cccc([S@](C)(=N)=O)c1 [Example 147, (R)-2-(4,4-difluoroazepan-1-yl)-4-methyl-N-(3-(S-methylsulfonimidoyl)phenyl)-5-(oxazol-5-yl)nicotinamide]
IC50 [1]: 5 to 50 nM | IC50 [2]: 5 to 50 nM

Cc1c(Br)cnc(N2CCCC(F)(F)CC2)c1C(=O)Nc1cccc([S@@](C)(=N)=O)c1 [Example 145, (S)-5-bromo-2-(4,4-difluoroazepan-1-yl)-4-methyl-N-(3-(S-methylsulfonimidoyl)phenyl)nicotinamide]
IC50 [1]: ≤ 5 nM | IC50 [2]: ≤ 5 nM

Cc1c(C(F)(F)F)nnc(N2CCCC(F)(F)CC2)c1C(=O)Nc1ccnc(S(=N)(N)=O)c1 (stereo not shown) [Example 119, 3-(4,4-difluoroazepan-1-yl)-5-methyl-N-(2-sulfamidimidoylpyridin-4-yl)-6-(trifluoromethyl)pyridazine-4-carboxamide]
IC50 [1]: 5 to 50 nM | IC50 [2]: 5 to 50 nM

C[S@@+]([O-])c1cc(NC(=O)c2cc(Cl)c(C(F)(F)F)cc2N2CCCC(F)(F)CC2)ccc1F [Example 206, (R)-5-chloro-2-(4,4-difluoroazepan-1-yl)-N-(4-fluoro-3-(methylsulfinyl)phenyl)-4-(trifluoromethyl)benzamide]
IC50 [1]: ≤ 5 nM | IC50 [2]: ≤ 5 nM

Cc1c(Cl)c(C(F)(F)F)nc(N2CCCC(F)(F)CC2)c1C(=O)Nc1cccc(S(C)(=N)=O)c1 (stereo not shown) [Example 41, 5-Chloro-2-(4,4-difluoroazepan-1-yl)-4-methyl-N-(3-(S-methylsulfonimidoyl)phenyl)-6-(trifluoromethyl)nicotinamide]
IC50 [1]: ≤ 5 nM | IC50 [2]: ≤ 5 nM

Cc1c(C(F)(F)F)nnc(N2CCCC(F)(F)CC2)c1C(=O)Nc1cccc([S@@](C)(=O)=NC(=O)CO)c1 [Example 232, (R)-3-(4,4-difluoroazepan-1-yl)-N-(3-(N-(2-hydroxyacetyl)-S-methylsulfonimidoyl)phenyl)-5-methyl-6-(trifluoromethyl)pyridazine-4-carboxamide]
IC50 [1]: ≤ 5 nM | IC50 [2]: ≤ 5 nM

Cc1c(C2CNC2)cnc(N2CCCC(F)(F)CC2)c1C(=O)Nc1cccc(S(C)(=N)=O)c1 (stereo not shown) [Example 173, 5-(azetidin-3-yl)-2-(4,4-difluoroazepan-1-yl)-4-methyl-N-(3-(S-methylsulfonimidoyl)phenyl)nicotinamide]
IC50 [1]: 100 to 200 nM | IC50 [2]: > 200 nM

CNS(=N)(=O)c1cc(NC(=O)c2cc(C(F)(F)F)c(C)nc2N2CCCC(F)(F)CC2)ccn1 (stereo not shown) [Example 107, 2-(4,4-difluoroazepan-1-yl)-6-methyl-N-(2-(N-methylsulfamidimidoyl)pyridine-4-yl)-5-(trifluoromethyl)nicotinamide]
IC50 [1]: ≤ 5 nM | IC50 [2]: ≤ 5 nM

CNCC(=O)N=[S@](C)(=O)c1cccc(NC(=O)c2c(N3CCCC(F)(F)CC3)ncc(-c3ccc(C#N)cc3)c2C)c1 [Example 50, (R)-5-(4-cyanophenyl)-2-(4,4-difluoroazepan-1-yl)-4-methyl-N-(3-(S-methyl-N-(methylglycyl)sulfonimidoyl)phenyl)nicotinamide]
IC50 [1]: ≤ 5 nM | IC50 [2]: ≤ 5 nM

Cc1c(-c2cnn(C)c2)cnc(N2CCCC(F)(F)CC2)c1C(=O)Nc1cccc([S@@](C)(=O)=NCCN)c1 [Example 210, (R)-N-(3-(N-(2-aminoethyl)-S-methylsulfonimidoyl)phenyl)-2-(4,4-difluoroazepan-1-yl)-4-methyl-5-(1-methyl-1H-pyrazol-4-yl)nicotinamide 2,2,2-trifluoroacetate]
IC50 [1]: 5 to 50 nM | IC50 [2]: 5 to 50 nM

Cc1c(Cl)c(-c2cnn(C)c2)nc(N2CCCC(F)(F)CC2)c1C(=O)Nc1cccc([S@](C)(=N)=O)c1 [Example 162, (R)-5-chloro-2-(4,4-difluoroazepan-1-yl)-4-methyl-6-(1-methyl-1H-pyrazol-4-yl)-N-(3-(S-methylsulfonimidoyl)phenyl)nicotinamide]
IC50 [1]: ≤ 5 nM | IC50 [2]: ≤ 5 nM

Cc1n[nH]c(C)c1-c1cnc(N2CCCC(F)(F)CC2)c(C(=O)Nc2cccc([S@](C)(=N)=O)c2)c1C [Example 152, (R)-2-(4,4-difluoroazepan-1-yl)-5-(3,5-dimethyl-1H-pyrazol-4-yl)-4-methyl-N-(3-(S-methylsulfonimidoyl)phenyl)nicotinamide]
IC50 [1]: > 200 nM | IC50 [2]: > 200 nM

Cc1c(-c2cc(F)cc(F)c2)cnc(N2CCCC(F)(F)CC2)c1C(=O)Nc1cccc([S@](C)(=N)=O)c1 [Example 61, (R)-2-(4,4-difluoroazepan-1-yl)-5-(3,5-difluorophenyl)-4-methyl-N-(3-(S-methylsulfonimidoyl)phenyl)nicotinamide]
IC50 [1]: ≤ 5 nM | IC50 [2]: ≤ 5 nM
